Structures can show the parent of a compound that is named as a salt.
Experiments:
recombinant human MetAP2 = molecular target: T1, recombinant human MetAP2 (Homo sapiens, UniProt P50579); assay: Recombinant human MetAP2 enzyme inhibition assay (MAS peptide / amino acid oxidase / Amplex UltraRed); type: biochemical
T1 construct: Flag; made in house
Procedure: Compounds are tested for their capacity to inhibit recombinant human MetAP2 activity using the following assay.
Flag tagged Human recombinant MetAP2 expressed and isolated for use as the enzyme source. 10 mM stock solutions of compounds were prepared in 100% DMSO and further diluted in 100% DMSO required concentration to 1 mM stocks. The stock compound solutions and DMSO vehicle controls were diluted to target final compound concentrations using assay buffer to a final concentration of 50 mM HEPES containing 100 mM NaCl, pH adjusted to 7.5. The MAS peptide was formulated to a 7.5 mM stock in distilled water and prior to use further diluted 1:4. […] 40 μl of enzyme was mixed with 100 μl of MnCl2 then further diluted in assay buffer to a final concentration of 16 μg/ml. To test for compound effect on MetAP2 enzyme activity, 5 μl of test compound, 10 μl of MAS substrate/amino acid oxidase mixture, 10 μl of MetAP2 was added to test wells in a 384 well black plate with blank wells containing no enzyme, replaced with 10 μl of assay buffer. All compounds were tested in duplicate on two occasions on the same day.
The plate was sealed with a TopSeal A cover and mixed briefly on an orbital mixer at 900 rpm. The plate was incubated for a further 25 minutes at 25° C. A 5× stock of Amplex buffer was prepared (0.25M sodium phosphate, pH 7.4) and stored at 4° C. When preparing for use the stock was diluted with distilled water. […] 25 μl detection reagent was added to each well of the test plate, which was re-sealed and mixed briefly on an orbital shaker. […] At the end of the MetAP2 incubation 25 μl Amplex/HRP mixture per well was added and the plate read plate on a plate reader.

[1] = system: Diet Induced Obese (DIO) C57BL/6 mice; assay: 10 day DIO mouse model (body weight, food intake, hematology, blood chemistry); type: in vivo; details: mouse, in vivo, sc, 0.3 mg/kg
Text: The objective of this study design was to investigate the efficacy of disclosed compounds in a 10 day DIO mouse model. Effects on body weight, food intake, hematology and blood chemistry were the primary readouts of this study design. […] Mice were fed Research Diets D12492 (60% Kcal fat, 20% Kcal carbohydrate and 20% protein) and provided water ad libitum. DIO mice were received and housed in the facility for approximately two weeks prior to the start of test article administration. On Day −4 or −3, mice were randomized into study groups based on body weight and body weights were continued to be recorded daily for the duration of the study. Daily food intake was assessed starting on Study Day −2 by weighing of the food with hopper together to avoid loss of food in transfer.
(§1) Compounds were formulated into a 100% DMSO stock (at 9 mg/mL) prior to the start, and further diluted into the target working concentration using the vehicle of 10% DMSO in water. Prior to test article administration, starting on Day −3 a dosing acclimation occured with all animals receiving a subcutaneous injection of vehicle (10% DMSO) only for 3 days. Starting on Day 1, test compounds or vehicle were administered based on individual body weight, subcutaneously, once a day for 10 days. All mice were sacrificed on Day 11, 24 hours following the final dosing on Day 10. After sacrifice, whole blood was collected and analyzed for hematology and blood chemistry parameters.
(§2) Compounds were tested vs. vehicle at various doses (1.0, 0.5, 0.3, 0.1, 0.03 mpk sc (mg per kg animal weight delivered subcutaneously), and the results are shown in Table 2 below.

[2] = system: Sprague Dawley rats on high fat diet (DIO); assay: 11 day rat DIO model (body weight, food intake, hematology, blood chemistry); type: in vivo; details: rat, in vivo, sc
Text: The objective of this study design is to investigate the efficacy of disclosed compounds in an 11 day rat DIO model used to screen compounds for pharmacologic efficacy on endpoints related to obesity and metabolism. Effects on body weight, food intake, hematology and blood chemistries were the primary readouts of this study design. […] Rats were fed Research Diets D12451 (45% High Fat) and provided water ad libitum. Rats were received and housed in the facility for at least two or three weeks prior to start of test article administration. On Day −4 or −3, rats were randomized into study groups based on body weight and body weights were continued to be recorded daily for the duration of the study. Daily food intake was assessed starting on Study Day −2 by weighing the hopper including the food to avoid loss of food in transfer.
as §1, with “for 11” for “for 10”, “All animals” for “All mice”, “11, approximately 2” for “11, 24”, “Day 11.” for “Day 10.”
as §2

[3] = system: embryo/fetal development in pregnant Sprague Dawley rats; details: 6 mpk subcutaneously once every three days, Gestation Days 6-18, pregnant rats
Procedure: The objective of this study design was to evaluate the potential effects of disclosed compounds on embryo/fetal development when given subcutaneously to pregnant rats once every three days during the critical period of organogenesis (Gestation Days 6-18). Female, Sprague Dawley rats, approximately 10 weeks of age, time bred, were ordered from a certified vendor and housed individually housed in stainless steel cages suspended over flush pans, on a 12-hour light-dark cycle (0700-1900) at 20-26° C. and 30-70% humidity. Rats were fed a standard rodent chow and provided water ad libitum. Rats were received and housed in the facility for a period of approximately 1 to 2 days.
Compounds were formulated using 100% DMSO mixed in Sterile Water for Injection, resulting in 2% DMSO solution in water. If necessary, due to limited solubility of a test article, a higher percentage of DMSO solution in water was used. Groups of 8 mated and presumed pregnant female rats were given subcutaneous doses of vehicle or test article, once every three days, beginning on Gestation Day 6 and ending on Gestation Day 18 (Days 6, 9, 12, 15, and 18), maintained two more days, and then euthanized and necropsied on Gestation Day 20. Body weights was recorded for all animals on Gestation Days 5 (purpose of randomization), 6, 9, 12, 15, 18, and 20 (scheduled euthanasia). Food consumption by weight was recorded on Gestation Days 6, 9, 12, 15, 18, and 20 (scheduled termination).
At necropsy, the dams were examined visually for external abnormalities including palpable masses. The abdominal, thoracic, and cranial cavities and their contents were examined for abnormalities and findings will be recorded. The reproductive tract were examined to record the number of ovarian corpora lutea, the number and location of uterine implantation sites noting the position of the cervix, and the number of early resorptions, late resorptions, live fetuses, and dead fetuses. For dead fetuses and late resorptions, crown-to-rump length and weight were recorded, if possible, and the fetus was discarded. For viable fetuses, weight, sex, and grossly visible external abnormalities were recorded.

T1 sequence (P50579 whole entry): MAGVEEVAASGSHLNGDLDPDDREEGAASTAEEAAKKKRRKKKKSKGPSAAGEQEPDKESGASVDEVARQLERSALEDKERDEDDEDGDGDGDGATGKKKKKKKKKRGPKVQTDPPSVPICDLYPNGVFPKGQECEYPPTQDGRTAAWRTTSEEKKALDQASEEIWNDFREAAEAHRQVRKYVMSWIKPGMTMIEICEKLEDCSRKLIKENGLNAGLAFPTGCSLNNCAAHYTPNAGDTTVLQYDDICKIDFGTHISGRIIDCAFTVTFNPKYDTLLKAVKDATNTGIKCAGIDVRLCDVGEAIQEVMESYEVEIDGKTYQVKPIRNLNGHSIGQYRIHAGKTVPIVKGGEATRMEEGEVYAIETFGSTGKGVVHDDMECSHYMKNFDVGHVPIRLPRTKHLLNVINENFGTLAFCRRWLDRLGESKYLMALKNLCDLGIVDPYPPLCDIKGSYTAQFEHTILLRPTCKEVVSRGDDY

| Compound | IC50 (recombinant human MetAP2) [µM] | DIO Mouse 10-day weight loss vs vehicle at indicated dose [1] [%] | DIO Rat 11-day weight loss vs vehicle at indicated dose ([2]; 0.3 mg/kg) [%] | DIO Rat 11-day weight loss vs vehicle at indicated dose ([2]; 1 mg/kg) [%] | Rat Embryofetal @6 mpk [3] |
| --- | --- | --- | --- | --- | --- |
| CO[C@@H]1[C@H](OC(=O)N2CC(CCN3CC(O)C3)C2)CC[C@]2(CO2)[C@H]1[C@@]1(C)O[C@@H]1CC=C(C)C [Example 6, (3R,4S,5S,6R)-5-methoxy-4-((2R,3R)-2-methyl-3-(3-methylbut-2-enyl)oxiran-2-yl)-1-oxaspiro[2.5]octan-6-yl 3-(2-(3-hydroxyazetidin-1-yl)ethyl)azetidine-1-carboxylate formate] | < 0.05 | 11.8 | 0.8 | 4.6 | Positive |
| CO[C@@H]1[C@H](OC(=O)N2CC(CCN3CC(C)(O)C3)C2)CC[C@]2(CO2)[C@H]1[C@@]1(C)O[C@@H]1CC=C(C)C [Example 9, (3R,4S,5S,6R)-5-methoxy-4-((2R,3R)-2-methyl-3-(3-methylbut-2-enyl)oxiran-2-yl)-1-oxaspiro[2.5]octan-6-yl 3-(2-(3-hydroxy-3-methylazetidin-1-yl)ethyl)azetidine-1-carboxylate formate] | < 0.05 | 7.4 | 5.5 | 4.8 | Positive |
| CO[C@@H]1[C@H](OC(=O)N2CC(CCN3CC4C(C3)C4(F)F)C2)CC[C@]2(CO2)[C@H]1[C@@]1(C)O[C@@H]1CC=C(C)C (stereo partly drawn) [Example 22, (3R,4S,5S,6R)-5-methoxy-4-((2R,3R)-2-methyl-3-(3-methylbut-2-enyl)oxiran-2-yl)-1-oxaspiro[2.5]octan-6-yl 3-(2-(6,6-difluoro-3-azabicyclo[3.1.0]hexan-3-yl)ethyl)azetidine-1-carboxylate formate] | < 0.05 | 14 | – | – | Negative |

From patent publication US20190084968A1, “FUMAGILLOL HETEROCYCLIC COMPOUNDS AND METHODS OF MAKING AND USING SAME” (Zafgen, Inc., priority 2015, published 2019)
